“And” between values parts separate entries of the source, which are not always exact repeats. Identical values can stand only once.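 Briefly, cells in 96-well plates were exposed to five compound concentrations for 48 h, and endpoints were estimated by linear interpolation. The concentration for 50% growth inhibition is given as GI50. TGI is the concentration that stops growth completely.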
Key:
Assay in all cases: inhibition of tumour cell growth, NCI panel, 48 h
LOX IMVI melanoma = tested on: LOX IMVI melanoma
OVCAR-3 ovarian = tested on: OVCAR-3 ovarian
T-47D breast = tested on: T-47D breast
DU-145 prostate = tested on: DU-145 prostate
SR leukemia = tested on: SR leukemia
HCT-15 colon = tested on: HCT-15 colon
U251 CNS = tested on: U251 CNS
TK-10 renal = tested on: TK-10 renal

Structure (SMILES)	GI50 (LOX IMVI melanoma) [µM]	TGI (LOX IMVI melanoma)	GI50 (OVCAR-3 ovarian)	TGI (OVCAR-3 ovarian)	GI50 (T-47D breast) [µM]	TGI (T-47D breast)	GI50 (DU-145 prostate) [µM]	TGI (DU-145 prostate)	GI50 (SR leukemia) [µM]	TGI (SR leukemia) [µM]	GI50 (HCT-15 colon) [µM]	TGI (HCT-15 colon)	GI50 (U251 CNS) [µM]	TGI (U251 CNS)	GI50 (TK-10 renal) [µM]	TGI (TK-10 renal)
COC(=O)COc1ccc(/C=C2\N=C(c3ccccc3)N(c3cc(C(F)(F)F)ccc3Cl)C2=O)cc1	21.8	53.3 µM	26.1 µM	96.8 µM	82.9	> 100 µM	51.5	> 100 µM	19.3	54.9	94.6	> 100 µM	46.4	> 100 µM	> 100	> 100 µM
COc1ccccc1C1=C2C(=O)N(C)C(c3ccccc3OC)=C2C(=O)N1C	–	> 100 µM	–	> 100 µM	–	> 100 µM	–	> 100 µM	–	–	–	> 100 µM	–	> 100 µM	–	> 100 µM
CC1(C)NCCC[C@]2(C)[C@H]3C=CC4=C5C[C@](C)(CO)CC[C@]5(C)CC[C@@]4(C)[C@]3(C)CC[C@@H]12	2.49	6.76 µM	2.69 µM	7.06 µM	5.38	20.9 µM	2.25	5.02 µM	2.42	7.17	4.21	16.4 µM	4.17	15.9 µM	2.66	7.15 µM
O=C1C(Cl)=C(Oc2ccc([N+](=O)[O-])cc2)C(=O)c2c(O)ccc(O)c21	–	–	–	> 100 µM	–	> 77.7 µM	–	> 100 µM	–	16.1	–	> 67.6 µM	–	> 100 µM	–	> 94 µM
O=C1/C(=C/c2ccc(O)c([N+](=O)[O-])c2)CCC/C1=C\c1ccc(O)c([N+](=O)[O-])c1	–	23.2 µM	2.54 µM	17.1 µM and > 100 µM	–	47.5 µM	2.99	20.3 µM and 15.3 µM	–	–	9.77	36.5 µM and 37.2 µM	14	18.3 µM and 26.9 µM	38.8	50 µM and > 100 µM
FC(F)(F)c1cccc(COCCN2CCN(Cc3cccc(C(F)(F)F)c3)CC2)c1	–	–	–	42.9 µM	–	39.1 µM	–	32.4 µM	–	> 100	–	31.5 µM	–	34.5 µM	–	27.4 µM
CC([C@H]1CCC2C3CCC4C[C@@H](NC=O)CC[C@]4(C)C3CC[C@@]21C)N(C)C (some centres undefined)	1.53	3.37 µM	2.55 µM	9.01 µM	1.76	5.94 µM	4.84	17.5 µM	–	–	1.56	4.66 µM	2.96	13.8 µM	10.1	24.7 µM
c1ccc(C(=NNc2nc3ccccc3o2)c2ccccn2)nc1	0.0539	2.45 µM and 0.702 µM	< 0.0218 µM and 0.035 µM	14.5 µM and 16.9 µM	–	12.4 µM and 25.8 µM	0.0775	19.4 µM and > 34.3 µM	–	–	0.0376	> 75.4 µM and 17.9 µM	0.0649	20.1 µM and 16.1 µM	0.0673	> 100 µM and 17.5 µM
Nc1ccc(C(=O)c2ccc(N)c(Br)c2)cc1Br	0.848	> 65.7 µM	0.234 µM	0.517 µM	–	–	0.334	1.58 µM	0.253	1.35	0.466	> 100 µM	0.419	18.3 µM	0.567	21.5 µM
CCCCCCCCCNCCCCCCCCC	1.61	3.02 µM	1.93 µM	3.46 µM	1.91	3.59 µM	1.85	3.74 µM	–	–	1.79	3.47 µM	1.71	3.15 µM	1.75	3.23 µM
O=C1CCCCCCCC/C=C/CCC(c2ccco2)O1 (centres undefined)	35.3	87.3 µM	39.4 µM	> 100 µM	21	> 100 µM	57.2	> 100 µM	–	–	> 100	> 100 µM	31.4	> 100 µM	23.5	> 100 µM
COc1ccc2nc(-c3ccccc3)cc(Nc3ccc(C(C)=O)cc3)c2c1	–	–	–	–	15.7	> 100 µM	14.1	27.1 µM	–	–	2.25	6.11 µM	2.46	10.8 µM	5.24	17.2 µM
Cc1ccccc1C(=O)C#Cc1cn(C2CC(O)C(CO)O2)c(=O)[nH]c1=O (centres undefined)	–	–	–	> 100 µM	–	> 100 µM	–	> 100 µM	–	> 100	–	> 100 µM	–	> 100 µM	–	> 100 µM
CC(=O)[CH-]C(=O)c1ccccc1.CC(=O)[CH-]C(=O)c1ccccc1.CC(=O)[CH-]C(=O)c1ccccc1.[Tl+3]	42.7	> 100 µM	24.1 µM	> 75.5 µM	–	–	–	–	–	–	41.7	> 100 µM	42.6	> 100 µM	> 59.2	> 100 µM
C=C1C(=O)O[C@@H]2C1C[C@@H](O)/C(C)=C/C/C=C(\C)CCC[C@H](C)[C@H]2OC(C)=O (some centres undefined)	21.9	47.2 µM	21.4 µM	42.7 µM	48.4	> 100 µM	20.4	45.4 µM	–	–	22.2	51.9 µM	23.8	52.4 µM	24.2	52.7 µM
O=[N+]([O-])c1ccc(Sc2c3ccccc3nc3ccccc23)cc1	–	> 100 µM	–	> 100 µM	–	–	–	–	–	–	–	> 100 µM	–	> 100 µM	–	–
CC1(C)COCN1COC1CCCCC1	–	–	–	> 100 µM	–	> 100 µM	–	> 100 µM	–	44	–	> 100 µM	–	> 100 µM	–	> 100 µM
O=C(c1cc(F)c(Cl)cc1Cl)N1N=C(c2ccccc2)CC1(O)c1ccccc1 (centres undefined)	17.1	30.8 µM	18.9 µM	59.5 µM	18.1	53.7 µM	17.3	35.9 µM	–	–	13.8	28.3 µM	18.4	38.5 µM	30.8	80.8 µM
CCOC(=O)Cc1csc(/N=C2\NC(=O)/C(=C3\C(=O)N(C)c4ccccc43)S2)n1	34.6	> 100 µM	28.2 µM	72.7 µM	81.5	> 100 µM	41.4	> 100 µM	–	–	39.7	> 100 µM	33.6	> 100 µM	31.9	> 100 µM
